Source: ChEMBL document CHEMBL2346657, “Synthesis of novel 2-amino-4-(5'-substituted 2'-phenyl-1H-indol-3'-yl)-6-aryl-4H-pyran-3-carbonitrile derivatives as antimicrobial and antioxidant agents” (2013)
Calls of active or inactive are those of the source. No rule for the calls is given here.

Assays:
Format in all cases: functional
Aspergillus niger [1] = test: Antimicrobial activity against Aspergillus niger MTCC 281 at 1000 ug/ml after 72 hrs by cup plate method; details: MTCC 281, 72 h, read-out: IZ
Aspergillus oryzae [2] = test: Antimicrobial activity against Aspergillus oryzae MTCC 3567 at 500 ug/ml after 72 hrs by cup plate method; details: MTCC 3567, 72 h, read-out: IZ
Aspergillus oryzae [3] = test: Antimicrobial activity against Aspergillus oryzae MTCC 3567 at 1000 ug/ml after 72 hrs by cup plate method; details: MTCC 3567, 72 h, read-out: IZ
Aspergillus terreus [4] = test: Antimicrobial activity against Aspergillus terreus MTCC 1782 at 750 ug/ml after 72 hrs by cup plate method; details: MTCC 1782, 72 h, read-out: IZ
Pseudomonas aeruginosa [5] = test: Antimicrobial activity against Pseudomonas aeruginosa MTCC 1688 at 750 ug/ml after 24 hrs by cup plate method; details: MTCC 1688, 24 h, read-out: IZ
Aspergillus terreus [6] = test: Antimicrobial activity against Aspergillus terreus MTCC 1782 at 1000 ug/ml after 72 hrs by cup plate method; details: MTCC 1782, 72 h, read-out: IZ
Escherichia coli [7] = test: Antimicrobial activity against Escherichia coli MTCC 723 at 1000 ug/ml after 24 hrs by cup plate method; details: MTCC 723, 24 h, read-out: IZ
Staphylococcus aureus [8] = test: Antimicrobial activity against Staphylococcus aureus ATCC 29513 at 750 ug/ml after 24 hrs by cup plate method; details: ATCC 29513, 24 h, read-out: IZ
Aspergillus niger [9] = test: Antimicrobial activity against Aspergillus niger MTCC 281 at 500 ug/ml after 72 hrs by cup plate method; details: MTCC 281, 72 h, read-out: IZ
Aspergillus terreus [10] = test: Antimicrobial activity against Aspergillus terreus MTCC 1782 at 500 ug/ml after 72 hrs by cup plate method; details: MTCC 1782, 72 h, read-out: IZ
Aspergillus flavus [11] = test: Antimicrobial activity against Aspergillus flavus MTCC 1973 at 750 ug/ml after 72 hrs by cup plate method; details: MTCC 1973, 72 h, read-out: IZ
Staphylococcus aureus [12] = test: Antimicrobial activity against Staphylococcus aureus ATCC 29513 at 500 ug/ml after 24 hrs by cup plate method; details: ATCC 29513, 24 h, read-out: IZ
Pseudomonas aeruginosa [13] = test: Antimicrobial activity against Pseudomonas aeruginosa MTCC 1688 at 1000 ug/ml after 24 hrs by cup plate method; details: MTCC 1688, 24 h, read-out: IZ
Klebsiella pneumoniae [14] = test: Antimicrobial activity against Klebsiella pneumoniae NCTC 13368 at 750 ug/ml after 24 hrs by cup plate method; details: NCTC 13368, 24 h, read-out: IZ
Escherichia coli [15] = test: Antimicrobial activity against Escherichia coli MTCC 723 at 750 ug/ml after 24 hrs by cup plate method; details: MTCC 723, 24 h, read-out: IZ
Pseudomonas aeruginosa [16] = test: Antimicrobial activity against Pseudomonas aeruginosa MTCC 1688 at 500 ug/ml after 24 hrs by cup plate method; details: MTCC 1688, 24 h, read-out: IZ
Aspergillus flavus [17] = test: Antimicrobial activity against Aspergillus flavus MTCC 1973 at 1000 ug/ml after 72 hrs by cup plate method; details: MTCC 1973, 72 h, read-out: IZ
Aspergillus oryzae [18] = test: Antimicrobial activity against Aspergillus oryzae MTCC 3567 at 750 ug/ml after 72 hrs by cup plate method; details: MTCC 3567, 72 h, read-out: IZ
[19] = Antioxidant activity assessed as metal chelating activity by measuring inhibition of ferrozine-Fe2+ complex formation at 25 to 100 ug/ml
Klebsiella pneumoniae [20] = test: Antimicrobial activity against Klebsiella pneumoniae NCTC 13368 at 1000 ug/ml after 24 hrs by cup plate method; details: NCTC 13368, 24 h, read-out: IZ
Aspergillus flavus [21] = test: Antimicrobial activity against Aspergillus flavus MTCC 1973 at 500 ug/ml after 72 hrs by cup plate method; details: MTCC 1973, 72 h, read-out: IZ
Escherichia coli [22] = test: Antimicrobial activity against Escherichia coli MTCC 723 at 500 ug/ml after 24 hrs by cup plate method; details: MTCC 723, 24 h, read-out: IZ
Klebsiella pneumoniae [23] = test: Antimicrobial activity against Klebsiella pneumoniae NCTC 13368 at 500 ug/ml after 24 hrs by cup plate method; details: NCTC 13368, 24 h, read-out: IZ
Staphylococcus aureus [24] = test: Antimicrobial activity against Staphylococcus aureus ATCC 29513 at 1000 ug/ml after 24 hrs by cup plate method; details: ATCC 29513, 24 h, read-out: IZ
Aspergillus niger [25] = test: Antimicrobial activity against Aspergillus niger MTCC 281 at 750 ug/ml after 72 hrs by cup plate method; details: MTCC 281, 72 h, read-out: IZ

Compound | zone of inhibition at 1000 µg/mL (Aspergillus niger [1]) [mm] | zone of inhibition at 500 µg/mL (Aspergillus oryzae [2]) [mm] | zone of inhibition at 1000 µg/mL (Aspergillus oryzae [3]) [mm] | zone of inhibition at 750 µg/mL (Aspergillus terreus [4]) [mm] | zone of inhibition at 750 µg/mL (Pseudomonas aeruginosa [5]) [mm] | zone of inhibition at 1000 µg/mL (Aspergillus terreus [6]) [mm] | zone of inhibition at 1000 µg/mL (Escherichia coli [7]) [mm] | zone of inhibition at 750 µg/mL (Staphylococcus aureus [8]) [mm] | zone of inhibition at 500 µg/mL (Aspergillus niger [9]) [mm] | zone of inhibition at 500 µg/mL (Aspergillus terreus [10]) [mm] | zone of inhibition at 750 µg/mL (Aspergillus flavus [11]) [mm] | zone of inhibition at 500 µg/mL (Staphylococcus aureus [12]) [mm] | zone of inhibition at 1000 µg/mL (Pseudomonas aeruginosa [13]) [mm] | zone of inhibition at 750 µg/mL (Klebsiella pneumoniae [14]) [mm] | zone of inhibition at 750 µg/mL (Escherichia coli [15]) [mm] | zone of inhibition at 500 µg/mL (Pseudomonas aeruginosa [16]) [mm] | zone of inhibition at 1000 µg/mL (Aspergillus flavus [17]) [mm] | zone of inhibition at 750 µg/mL (Aspergillus oryzae [18]) [mm] | Activity [19] | zone of inhibition at 1000 µg/mL (Klebsiella pneumoniae [20]) [mm] | further results
O=c1[nH]cnc2c1C(c1c(-c3ccccc3)[nH]c3ccccc13)C=C(c1ccc(Cl)cc1)O2 (stereo not given) | 8 | 10 | 10 | 6 | 10 | 5 | 9 | 5 | 8 | 6 | 9 | 5 | 10 | 9 | 9 | 10 | 8 | 10 | Active | 10 | zone of inhibition at 500 µg/mL (Aspergillus flavus [21]): 10 mm; zone of inhibition at 500 µg/mL (Escherichia coli [22]): 9 mm; zone of inhibition at 500 µg/mL (Klebsiella pneumoniae [23]): 9 mm; zone of inhibition at 1000 µg/mL (Staphylococcus aureus [24]): 5 mm; zone of inhibition at 750 µg/mL (Aspergillus niger [25]): 8 mm
Nc1n[nH]c2c1C(c1c(-c3ccccc3)[nH]c3ccccc13)C=C(c1ccccc1)O2 (stereo not given) | 6 | 6 | 10 | 5 | 12 | 5 | 9 | 2 | 5 | 5 | 10 | 2 | 12 | 9 | 9 | 12 | 3 | 5 | Active | 8 | zone of inhibition at 500 µg/mL (Aspergillus flavus [21]): 10 mm; zone of inhibition at 500 µg/mL (Escherichia coli [22]): 10 mm; zone of inhibition at 500 µg/mL (Klebsiella pneumoniae [23]): 10 mm; zone of inhibition at 1000 µg/mL (Staphylococcus aureus [24]): 2 mm; zone of inhibition at 750 µg/mL (Aspergillus niger [25]): 5 mm
Cc1ccc2[nH]c(-c3ccccc3)c(C3C=C(c4ccc(Cl)cc4)Oc4[nH]c(=O)nc(N)c43)c2c1 (stereo not given) | 6 | 8 | 8 | 6 | 0 | 5 | 3 | 5 | 5 | 7 | 5 | 5 | 0 | 3 | 8 | 0 | 4 | 8 | Active | 3 | zone of inhibition at 500 µg/mL (Aspergillus flavus [21]): 8 mm; zone of inhibition at 500 µg/mL (Escherichia coli [22]): 10 mm; zone of inhibition at 500 µg/mL (Klebsiella pneumoniae [23]): 4 mm; zone of inhibition at 1000 µg/mL (Staphylococcus aureus [24]): 7 mm; zone of inhibition at 750 µg/mL (Aspergillus niger [25]): 4 mm
